# Assay results published in BindingDB's records for PubMed 1328199 (University of Chicago, 1992).
# pKi: −log10 of the molar value. Bridge positions count the residues as written; N and C are the ends. Square brackets hold non-standard residues; d marks the D form. Peptide text beside a SMILES is read from it. * marks the point of attachment. X1 = CC(O)[C@H](CO)N*
# What was measured:
# [1] = target: Somatostatin receptor type 3 (Mus musculus, UniProt P30935)
# [2] = target: Somatostatin receptor type 2 (Mus musculus, UniProt P30875)
# Sequence of Somatostatin receptor type 2 (P30875 whole entry): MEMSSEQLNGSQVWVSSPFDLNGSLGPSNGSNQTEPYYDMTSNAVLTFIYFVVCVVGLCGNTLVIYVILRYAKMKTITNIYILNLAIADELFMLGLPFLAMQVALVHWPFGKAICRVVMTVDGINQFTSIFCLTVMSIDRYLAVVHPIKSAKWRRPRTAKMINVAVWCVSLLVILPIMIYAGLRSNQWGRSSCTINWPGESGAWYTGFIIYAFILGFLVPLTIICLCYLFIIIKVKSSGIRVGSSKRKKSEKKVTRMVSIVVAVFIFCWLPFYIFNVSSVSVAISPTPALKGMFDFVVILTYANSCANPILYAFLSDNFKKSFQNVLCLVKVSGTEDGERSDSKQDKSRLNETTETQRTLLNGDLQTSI
# Sequence of Somatostatin receptor type 3 (P30935 whole entry): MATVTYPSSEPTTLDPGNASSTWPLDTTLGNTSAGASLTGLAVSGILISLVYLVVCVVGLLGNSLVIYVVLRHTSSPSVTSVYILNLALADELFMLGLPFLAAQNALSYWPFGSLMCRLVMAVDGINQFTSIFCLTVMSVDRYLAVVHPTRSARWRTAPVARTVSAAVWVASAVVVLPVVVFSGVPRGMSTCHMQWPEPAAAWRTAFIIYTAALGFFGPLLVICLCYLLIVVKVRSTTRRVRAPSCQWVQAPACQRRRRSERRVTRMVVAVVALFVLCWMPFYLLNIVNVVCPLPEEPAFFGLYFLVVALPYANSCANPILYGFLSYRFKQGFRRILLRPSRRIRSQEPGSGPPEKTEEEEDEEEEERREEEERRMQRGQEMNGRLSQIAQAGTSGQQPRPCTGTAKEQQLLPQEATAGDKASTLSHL
SMILES,pKi [1],pKi [2]
CC(O)[C@H](CO)NC(=O)[C@@H]1CSSC[C@H](NC(=O)[C@H](N)Cc2ccccc2)C(=O)N[C@@H](Cc2ccccc2)C(=O)N[C@H](Cc2c[nH]c3ccccc23)C(=O)N[C@@H](CCCCN)C(=O)N[C@@H]([C@@H](C)O)C(=O)N1 (some centres undefined) (H-[dF]CF[dW]KTC-X1; disulfide 2-7),6.82,9.30
CC(C)[C@@H]1NC(=O)[C@H](CCCCN)NC(=O)[C@@H](Cc2c[nH]c3ccccc23)NC(=O)[C@H](Cc2ccc(O)cc2)NC(=O)[C@H](C)N(C)C(=O)[C@H](Cc2ccccc2)NC1=O [CAS_3086456],6.57,10.15
